Where two headings read alike, the source gives them in different places.
Experiments:
[1] = target: SARS-Cov-2 3CLpro (Severe acute respiratory syndrome coronavirus 2, UniProt P0DTD1); assay: biochemical; details: Table A, class symbols, read-out: SARS-Cov-2 (IC50)
[2] = tested on: human beta-coronavirus OC43; assay: OC43 Coronavirus Assay in HeLa cells (antiviral, cytopathic effect, cell-titer-glo); format: cell-based; details: Betacoronavirus 1, OC43, HeLa, Table B, OC43 coronavirus in HeLa cells, read-out: EC50
[3] = tested on: SARS-CoV-2 B.1.1.7 lineage; assay: microbe, parasite or virus in culture; format: cell-based
[4] = in vitro; details: human
[5] = Cytotoxicity in HeLa cells without addition of OC43 virus (in parallel); details: human, HeLa cells, without OC43 virus
[6] = Severe acute respiratory syndrome coronavirus 2, Table C, SARS-CoV-2 B.1.1.7 in A549-dual_ACE2_TMPRSS2 cells, class symbols, read-out: A549-dual_ACE2_TMPRSS2 (EC50)
[7] = Severe acute respiratory syndrome coronavirus 2, Table C, SARS-CoV-2 B.1.1.7 in A549-dual_ACE2_TMPRSS2 cells, cells given as a bound, read-out: A549-dual_ACE2_TMPRSS2 (EC50)

SMILES | IC50 [1] [nM] | EC50 ([2]; class symbols) [nM] | EC50 [3, 6] [nM] | CC50 [4] [nM] | CC50 at 6 days [5] [nM] | EC50 [3, 7] [nM] | EC50 ([2]; cells given as a bound) [nM] | EC50 ([3]; Severe acute respiratory syndrome coronavirus 2, read-out: A549-dual_ACE2_TMPRSS2 (EC50)) [nM]
CN(C(=O)[C@H](CC1CC1)NC(=O)C(F)(F)F)[C@@H](CC1CC1)C(=O)N1C[C@@]2(C[C@H]1C#N)Oc1cc(F)cc(F)c1NC2=O [Compound 55] | < 20 | < 100 | < 100 | > 1000 | > 10000 | – | – | –
CN(C(=O)C(C)(C)NC(=O)C(F)(F)F)[C@@H](CC1CC1)C(=O)N1C[C@@]2(C[C@H]1C#N)Oc1cc(F)cc(F)c1NC2=O [Compound 92] | 200 to 2000 | < 100 | < 100 | > 1000 | > 10000 | – | – | –
CN(C(=O)[C@H](COc1ccccc1)NC(=O)C(F)(F)F)[C@@H](CC1CC1)C(=O)N1C[C@@]2(C[C@H]1C#N)Oc1cccnc1NC2=O [Compound 202] | < 20 | 100 to 1000 | – | > 1000 | > 10000 | > 1000 | – | –
CC(C)C[C@](C)(NC(=O)C(F)(F)F)C(=O)N(C)[C@@H](CC1CC1)C(=O)N1C[C@@]2(C[C@H]1C#N)Oc1cc(F)cc(F)c1NC2=O [Compound 100] | 20 to 200 | < 100 | 100 to 1000 | > 1000 | > 10000 | – | – | –
C[C@@H](OC(C)(C)C)[C@H](NC(=O)C(F)(F)F)C(=O)N(C)[C@@H](CC1CC1)C(=O)N1C[C@@]2(C[C@H]1C#N)Oc1cccnc1NC2=O [Compound 196] | < 20 | < 100 | 100 to 1000 | > 1000 | > 10000 | – | – | –
CC(C)C[C@@H](C(=O)N1C[C@]2(C[C@H]1C#N)C(=O)Nc1ccccc1N2C)N(C)C(=O)[C@H](C)NC(=O)C(F)(F)F [Example 42, (S)—N—((S)-1-((3R,5S)-5-cyano-1′-methyl-3′-oxo-3′,4′-dihydro-1′H-spiro[pyrrolidine-3,2′-quinoxalin]-1-yl)-4-methyl-1-oxopentan-2-yl)-N-methyl-2-(2,2,2-trifluoroacetamido) propanamide] | 20 to 200 | – | 100 to 1000 | > 1000 | > 10000 | – | > 10000 | –
CC(C)C[C@H](NC(=O)C(F)(F)F)C(=O)N(C)[C@@H](CC(C)C)C(=O)N1C[C@@]2(C[C@H]1C#N)Oc1cc(F)cc(F)c1NC2=O [Compound 63] | < 20 | 100 to 1000 | 100 to 1000 | > 1000 | > 10000 | – | – | –
CC(C)C[C@@H](C(=O)N1C[C@@]2(C[C@H]1C#N)N=C(C1CC1)NC2=O)N(C)C(=O)[C@H](C)NC(=O)C(F)(F)F [Compound 16] | 20 to 200 | 100 to 1000 | – | > 1000 | > 10000 | > 1000 | – | –
C[C@H](NC(=O)C(F)(F)F)C(=O)N(C)[C@@H](CC1CC1)C(=O)N1C[C@@]2(C[C@H]1C#N)Oc1cc(F)cc(F)c1NC2=O [Example 37, (S)—N—((S)-1-((2R,5'S)-5′-cyano-5,7-difluoro-3-oxo-3,4-dihydrospiro[benzo[b][1,4]oxazine-2,3′-pyrrolidin]-1′-yl)-3-cyclopropyl-1-oxopropan-2-yl)-N-methyl-2-(2,2,2-trifluoroacetamido)propanamide] | < 20 | < 100 | 100 to 1000 | > 1000 | > 10000 | – | – | –
CC(C)C[C@@H](C(=O)N1C[C@]2(C[C@H]1C#N)C(=O)Nc1cc(Br)nn12)N(C)C(=O)[C@H](C)NC(=O)C(F)(F)F [Compound 26, (2S)—N-[(2S)-1-[(3R,5'S)-6-bromo-5′-cyano-2-oxo-1H-spiro[pyrazolo[1,5-a]imidazole-3,3′-pyrrolidin]-1′-yl]-4-methyl-1-oxopentan-2-yl]-N-methyl-2-(2,2,2-trifluoroacetamido)propanamide] | 20 to 200 | 100 to 1000 | – | > 1000 | > 10000 | > 1000 | – | –
CN(C(=O)[C@H](CC1CC1)NC(=O)C(F)(F)F)[C@@H](CC1CC1)C(=O)N1C[C@@]2(C[C@H]1C#N)Oc1ccc(F)c(F)c1NC2=O [Compound 52] | < 20 | < 100 | < 100 | > 1000 | > 10000 | – | – | –
CC(C)C[C@@H](C(=O)N1C[C@@]2(C[C@H]1C#N)N=C(c1ccccc1)NC2=O)N(C)C(=O)[C@H](C)NC(=O)C(F)(F)F [Compound 12, (2S)—N-[(2S)-1-[(5R,8S)-8-cyano-4-oxo-2-phenyl-1,3,7-triazaspiro[4.4]non-1-en-7-yl]-4-methyl-1-oxopentan-2-yl]-N-methyl-2-(2,2,2-trifluoroacetamido)propanamide] | 20 to 200 | 1000 to 10000 | 1000 to 10000 | > 1000 | > 10000 | – | – | –
CN(C(=O)[C@@H](NC(=O)C(F)(F)F)C1CC(F)(F)C1)[C@@H](CC1CC1)C(=O)N1C[C@@]2(C[C@H]1C#N)Oc1cccnc1NC2=O [Compound 201] | 20 to 200 | 100 to 1000 | 100 to 1000 | > 1000 | > 10000 | – | – | –
CC(C)C[C@@H](C(=O)N1C[C@@]2(C[C@H]1C#N)CC1(CC1)NC2=O)N(C)C(=O)[C@H](C)NC(=O)C(F)(F)F [Compound 13, (S)—N—((S)-1-((5R,8S)-8-cyano-10-oxo-7,11-diazadispiro[2.1.4^5.2^3]undecan-7-yl)-4-methyl-1-oxopentan-2-yl)-N-methyl-2-(2,2,2-trifluoroacetamido)propanamide] | < 20 | 100 to 1000 | – | > 1000 | > 10000 | – | – | 100 to 1000
Cc1cn([C@@H](CC2CC2)C(=O)N(C)[C@@H](CC2CC2)C(=O)N2C[C@@]3(C[C@H]2C#N)Oc2cc(F)cc(F)c2NC3=O)nn1 [Compound 146] | < 20 | 100 to 1000 | 100 to 1000 | > 1000 | > 10000 | – | – | –
CC(C)C[C@@H](C(=O)N1C[C@@]2(C[C@H]1C#N)CC1(CCCC1)NC2=O)N(C)C(=O)[C@H](C)NC(=O)C(F)(F)F [Compound 19] | 20 to 200 | 100 to 1000 | 100 to 1000 | > 1000 | > 10000 | – | – | –
CC(C)C[C@@H](C(=O)N1C[C@@]2(CC1C#N)Oc1cc(F)cc(F)c1NC2=O)N(C)C(=O)[C@H](C)NC(=O)C(F)(F)F (stereo partly shown) [Compound 51] | < 20 | 100 to 1000 | 100 to 1000 | > 1000 | > 10000 | – | – | –
CN(C(=O)[C@H](CC1CC1)NC(=O)C(F)(F)F)[C@@H](CC1CC1)C(=O)N1C[C@@]2(C[C@H]1C#N)Oc1c(F)cccc1CNC2=O [Compound 168] | < 20 | < 100 | < 100 | > 1000 | > 10000 | – | – | –
CN(C(=O)[C@H](CC1CC1)NS(=O)(=O)C1CC1)[C@@H](CC1CC1)C(=O)N1C[C@@]2(C[C@H]1C#N)Oc1ccccc1CNC2=O [Compound 175] | < 20 | < 100 | 100 to 1000 | > 1000 | > 10000 | – | – | –
Cc1cnc2c(c1)NC(=O)[C@]1(C[C@@H](C#N)N(C(=O)[C@H](CC3CC3)N(C)C(=O)[C@H](CC3CC3)NC(=O)C(F)(F)F)C1)O2 [Compound 126, (S)—N—((S)-1-((3R,5'S)-5′-cyano-7-methyl-2-oxo-1,2-dihydrospiro[pyrido[2,3-b][1,4]oxazine-3,3′-pyrrolidin]-1′-yl)-3-cyclopropyl-1-oxopropan-2-yl)-3-cyclopropyl-N-methyl-2-(2,2,2-trifluoroacetamido)propanamide] | < 20 | < 100 | 100 to 1000 | > 1000 | > 10000 | – | – | –
